Among the data in article PMC5171790, “Ribavirin suppresses bacterial virulence by targeting LysR-type transcriptional regulators” (Scientific Reports, 2016) are Kd values, retold here.

pKd: −log10 of the molar value.

Assay [1] concerns the target Hrg. Description: ITC. To be noted: 10 mM sodium phosphate, 50 mM NaCl, pH 7.4, 25 °C; single-site model.
Assay [2] addresses T1, AphB (Vibrio cholerae, UniProt Q9KT56).
T1 construct: gene VC_1049
Description: biochemical.

The pKd is −log10 of the Kd, conventionally taken in molar units. A high value points to a low Kd. Turning to `NC(=O)c1ncn([C@@H]2O[C@H](CO)[C@@H](O)[C@H]2O)n1` [ribavirin, 1-D-ribofuranosyl-1H-1,2,4-triazole-3-carboxamide], the pKd in assay [1] was 3.63; in assay [2] it was approximately 3.52.
